Experimental data reported in PMC9096814 (Biochemistry, 2022).
Where two headings read alike, the source gives them in different places.

What was measured:
cathepsin B [1] = target: T1, cathepsin B (Homo sapiens, UniProt P07858); experiment: Cathepsin B activity assay with Z-Phe-Arg-AMC, inhibition kinetics; type: biochemical; conditions: for KI (inactivation): read-out: KI, irreversible inhibitor kinetics
Cathepsin C = Cathepsin C (Homo sapiens, UniProt P53634); experiment: Selectivity assay, cathepsin C; type: biochemical; conditions: for % inhibition: 16 μM inhibitor
Cathepsin C, sequence (P53634 25-134 limits assumed): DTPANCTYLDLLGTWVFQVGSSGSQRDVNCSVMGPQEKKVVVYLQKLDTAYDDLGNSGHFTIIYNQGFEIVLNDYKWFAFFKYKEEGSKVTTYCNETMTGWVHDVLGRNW
Cathepsin C, sequence (P53634 231-394 limits assumed): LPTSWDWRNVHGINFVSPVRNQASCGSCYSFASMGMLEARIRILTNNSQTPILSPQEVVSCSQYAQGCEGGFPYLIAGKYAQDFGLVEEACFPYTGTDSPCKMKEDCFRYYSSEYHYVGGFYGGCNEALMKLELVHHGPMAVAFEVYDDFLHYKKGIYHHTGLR
Cathepsin C, sequence (P53634 395-463 limits assumed): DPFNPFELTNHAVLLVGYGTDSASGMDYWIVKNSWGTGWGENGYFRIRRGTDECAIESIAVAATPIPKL

Cathepsin K = target: T2, Cathepsin K (Homo sapiens, UniProt P43235); experiment: Selectivity assay, cathepsin K; type: biochemical; conditions: for % inhibition: 16 μM inhibitor
T2 sequence (P43235 115-329): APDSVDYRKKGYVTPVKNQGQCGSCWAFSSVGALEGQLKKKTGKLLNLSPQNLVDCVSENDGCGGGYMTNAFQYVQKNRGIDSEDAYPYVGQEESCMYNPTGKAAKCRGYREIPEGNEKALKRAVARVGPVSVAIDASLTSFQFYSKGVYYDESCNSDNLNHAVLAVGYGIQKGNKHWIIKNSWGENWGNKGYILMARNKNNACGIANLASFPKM

Cathepsin S = Cathepsin S (Homo sapiens, UniProt P25774); experiment: Selectivity assay, cathepsin S; type: biochemical; conditions: for % inhibition: 16 μM inhibitor
Cathepsin S, sequence (P25774 115-331): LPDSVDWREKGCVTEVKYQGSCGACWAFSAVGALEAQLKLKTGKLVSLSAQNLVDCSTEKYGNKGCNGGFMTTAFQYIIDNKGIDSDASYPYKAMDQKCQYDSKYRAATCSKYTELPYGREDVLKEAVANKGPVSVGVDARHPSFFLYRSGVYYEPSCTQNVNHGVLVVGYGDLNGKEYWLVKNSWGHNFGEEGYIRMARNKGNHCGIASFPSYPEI

Cathepsin V = Cathepsin V (Homo sapiens, UniProt O60911); experiment: Selectivity assay, cathepsin V; type: biochemical; conditions: for % inhibition: 16 μM inhibitor
Cathepsin V, sequence (O60911 114-334): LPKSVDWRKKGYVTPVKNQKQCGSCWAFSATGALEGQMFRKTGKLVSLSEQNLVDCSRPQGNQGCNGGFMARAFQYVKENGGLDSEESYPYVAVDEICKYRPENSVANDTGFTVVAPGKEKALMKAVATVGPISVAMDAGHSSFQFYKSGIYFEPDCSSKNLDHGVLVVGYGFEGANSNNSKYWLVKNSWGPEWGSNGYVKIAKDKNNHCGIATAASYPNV

Cathepsin X = Cathepsin X (Homo sapiens, UniProt Q9UBR2); experiment: Selectivity assay, cathepsin X; type: biochemical; conditions: for % inhibition: 16 μM inhibitor
Cathepsin X, sequence (Q9UBR2 62-303): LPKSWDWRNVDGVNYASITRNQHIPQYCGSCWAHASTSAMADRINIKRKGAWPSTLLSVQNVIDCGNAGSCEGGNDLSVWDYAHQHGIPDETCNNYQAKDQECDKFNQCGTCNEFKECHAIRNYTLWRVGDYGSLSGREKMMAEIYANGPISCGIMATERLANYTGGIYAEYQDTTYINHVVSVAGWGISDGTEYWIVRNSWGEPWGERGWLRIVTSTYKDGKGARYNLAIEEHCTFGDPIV

cathepsin B [2] = target: T1, cathepsin B; experiment: Irreversible inhibition mechanism by dilution experiments; type: biochemical; conditions: pH 4.6, pH 5.5, and pH 7.2; preincubation at 10 times the IC50, diluted 100-fold, Z-F-R-AMC added
cathepsin B [3] = target: T1, cathepsin B; experiment: Multiplex substrate profiling by mass spectrometry; type: biochemical; conditions: 10 nM inhibitor, 30 min preincubation
Cathepsin H = Cathepsin H (Homo sapiens, UniProt P09668); experiment: Selectivity assay, cathepsin H; type: biochemical; conditions: for % inhibition: 16 μM inhibitor
Cathepsin H, sequence (P09668 116-335 limits assumed, other chains not shown): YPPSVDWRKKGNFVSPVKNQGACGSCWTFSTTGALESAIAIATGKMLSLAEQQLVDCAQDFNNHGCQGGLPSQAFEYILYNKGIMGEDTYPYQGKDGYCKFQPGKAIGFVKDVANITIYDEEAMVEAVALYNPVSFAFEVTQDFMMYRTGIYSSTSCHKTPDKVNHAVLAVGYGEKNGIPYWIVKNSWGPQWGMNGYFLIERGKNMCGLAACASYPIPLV

Cathepsin L = Cathepsin L (Homo sapiens, UniProt P07711); experiment: Selectivity assay, cathepsin L; type: biochemical; conditions: for % inhibition: 16 μM inhibitor
Cathepsin L, sequence (P07711 114-333): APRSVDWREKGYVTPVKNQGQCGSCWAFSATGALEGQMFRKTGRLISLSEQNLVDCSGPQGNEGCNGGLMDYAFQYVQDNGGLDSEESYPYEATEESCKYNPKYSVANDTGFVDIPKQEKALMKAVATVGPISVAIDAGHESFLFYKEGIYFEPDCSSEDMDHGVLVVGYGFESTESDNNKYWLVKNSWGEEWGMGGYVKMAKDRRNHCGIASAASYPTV

cathepsin B [4] = conditions: ref [44]; cited from earlier work

## CCCNC(=O)[C@H]1O[C@@H]1C(=O)N[C@H](C(=O)N1CCC[C@H]1C(=O)O)[C@@H](C)CC (relative stereo) [CA-074, N-(L-3-trans-propylcarbamoyloxirane-2-carbonyl)-L-isoleucyl-L-proline]
Cathepsin B [1]; 10 nM inhibitor, pH 7.2
  effect on cathepsin B cleavage of Z-Phe-Arg-AMC substrate: no effect
Cathepsin C; pH 4.6
  IC50: > 16 µM
Cathepsin C; pH 5.5
  IC50: > 16 µM
Cathepsin C; pH 7.2
  IC50: > 16 µM
Cathepsin K; pH 4.6
  IC50: > 16 µM
Cathepsin K; pH 4.6, 16 µM
  % inhibition: 8%
Cathepsin K; pH 5.5
  IC50: > 16 µM
Cathepsin K; pH 7.2
  IC50: > 16 µM
Cathepsin S; pH 4.6
  IC50: > 16 µM
Cathepsin S; pH 5.5
  IC50: 4.8 µM
Cathepsin S; pH 7.2
  IC50: > 16 µM
  % inhibition: 29%
Cathepsin V; pH 4.6
  IC50: > 16 µM
Cathepsin V; pH 4.6, 16 µM
  % inhibition: 10%
Cathepsin V; pH 5.5
  IC50: > 16 µM
Cathepsin V; pH 7.2
  IC50: > 16 µM
Cathepsin X; pH 4.6
  IC50: > 16 µM
Cathepsin X; pH 4.6, 16 µM
  % inhibition: 5%
Cathepsin X; pH 5.5
  IC50: > 16 µM
Cathepsin B [2]
  irreversible or reversible inhibition of cathepsin B: irreversible
Cathepsin B [3]; pH 4.6
  effect on cathepsin B cleavages of peptide library substrates (MSP-MS): blocked
Cathepsin B [3]; pH 7.2
  effect on cathepsin B cleavages of peptide library substrates (MSP-MS): no effect

## CCCNC(=O)[C@H]1O[C@@H]1C(=O)N[C@H](C(=O)N1CCC[C@H]1C(=O)OC)[C@@H](C)CC [CA-074Me]
Cathepsin B [1]; pH 4.6
  IC50: 8.9 µM
  fold less potent than CA-074 (IC50): 1495 fold
  kinact: 0.016 s⁻¹
  kinact/KI: 310 M⁻¹ s⁻¹
  KI (inactivation): 52 µM
Cathepsin B [1]; pH 4.6, Z-Phe-Arg-AMC substrate, no preincubation
  IC50: 8.97 µM
Cathepsin B [1]; pH 5.5
  fold less potent than CA-074 (IC50): 311 fold
  kinact: 0.014 s⁻¹
  kinact/KI: 250 M⁻¹ s⁻¹
  potency (KI) compared to CA-074: 1/265
  KI (inactivation): 56 µM
Cathepsin B [1]; pH 5.5, Z-Phe-Arg-AMC substrate, no preincubation
  IC50: 13.7 µM
Cathepsin B [1]; pH 7.2
  IC50: 7.6 µM
  fold less potent than CA-074 (IC50): 10 fold
  kinact: 0.014 s⁻¹
  kinact/KI: 480 M⁻¹ s⁻¹
  potency (KI) compared to CA-074: 1/15
  KI (inactivation): 29 µM
Cathepsin B [1]; pH 7.2, Z-Phe-Arg-AMC substrate, no preincubation
  IC50: 7.56 µM
Cathepsin C; pH 4.6
  IC50: > 16 µM
  % inhibition: 5%
Cathepsin C; pH 5.5
  IC50: > 16 µM
  % inhibition: 0%
Cathepsin C; pH 7.2
  IC50: > 16 µM
  % inhibition: 4%
Cathepsin H; pH 4.6
  IC50: > 16 µM
  % inhibition: 0%
Cathepsin H; pH 5.5
  IC50: > 16 µM
  % inhibition: 0%
Cathepsin H; pH 7.2
  IC50: > 16 µM
  % inhibition: 19%
Cathepsin L; pH 4.6
  IC50: > 16 µM
  % inhibition: 0%
Cathepsin L; pH 5.5
  IC50: > 16 µM
  % inhibition: 0%
Cathepsin K; pH 4.6
  IC50: > 16 µM
  % inhibition: 0%
Cathepsin K; pH 5.5
  IC50: > 16 µM
  % inhibition: 0%
Cathepsin K; pH 7.2
  IC50: > 16 µM
  % inhibition: 16%
Cathepsin S; pH 4.6
  IC50: > 16 µM
  % inhibition: 22%
Cathepsin S; pH 5.5
  IC50: 5.5 µM
Cathepsin S; pH 7.2
  IC50: 3.8 µM
Cathepsin V; pH 5.5
  IC50: > 16 µM
  % inhibition: 22%
Cathepsin V; pH 7.2
  IC50: > 16 µM
  % inhibition: 0%
Cathepsin X; pH 4.6
  IC50: > 16 µM
  % inhibition: 0%
Cathepsin X; pH 5.5
  IC50: > 16 µM
  % inhibition: 0%
Cathepsin B [2]
  irreversible or reversible inhibition of cathepsin B: irreversible inhibition

## Cc1cccc(C)c1C(=O)OCC(=O)[C@H](CCCCN)NC(=O)[C@H](CCCN=C(N)N)NC(=O)OCc1ccccc1 [Z-Arg-Lys-AOMK]
Cathepsin B [4]
  fold selective at inhibiting cathepsin B at pH 7.4 over pH 4.6: > 100 fold
